Test results published in patent EP1285919A1, “C10 Carbonate substituted taxanes as antitumor agents” (Florida State University Research Foundation, Inc., priority 2001, dated 2003).

Legend:
SK-MES carcinoma = test system: SK-MES carcinoma
Description: (§1) In Vivo Evaluation of Antitumor Compounds Against Human Lung Carcinoma Xenografts
(§2) The compounds were prepared in the manner as described for Solution 2 of Example 10. Taxol (paclitaxel, Bristol Meyers Squibb), used as a control, was obtained as the marketed pharmaceutical drug.
(§3) Taxol itself was given as a split i.v. dose of 36 mg/kg, with the two 18 mg/kg doses separated by one hour. Vehicle control animals were dosed twice intravenously with half the total volume being given separated by one hour. The study was terminated on Day 60.
(§4) The results are summarized in Table 1 and include mean days of survival (MDS), number of toxic deaths, number of survivors, number of complete or partial responses, and number with stable disease. The mean days of survival is the number of days after which a SKMES neoplasm reached a size of 1.5 g and the animal was euthanized. A complete response is obtained if the tumor is not palpable at the end of the study. A partial response is obtained if the tumor shrinks to a size smaller than its size on Day 1 of the study.
(§5) A tumor scoring system was designed to provide a more quantitative ranking of efficacy (therapeutic potential) among the antitumor agents evaluated against the different human solid tumor xenografts. Each mouse in a study was given a score of from 1 to 10 at the end of the study. The scores can be summarized as follows:
(§6) The individual score for each mouse was averaged into a mean score for each treatment group. […]

[1] = test system: NCI-H1299 (H1299) carcinoma
Description: as §1, §2, §3, §4, §5, §6
The treatment protocol for the H1299 test was identical to the SK-MES test protocol. […]

blood cell populations = assay: Effect of oral treatment on blood cell populations, body weight and tumor weight in the MX-1 study; type: in vivo, nu/nu mice; details: Group 3: 73 mg/kg single oral bolus
Description: Antitumor compounds were administered orally in a study to investigate whether such formulations are efficacious against the MX-1 human breast carcinoma xenograft. The compounds were prepared in the following vehicle: 90% saline, 5% Cremophor, and 5% ethanol. Antitumor compound 1771 was formulated as described for Solution 1 in Example 6. Antitumor compound 1781 was formulated as described for Solution 2 in Example 6.
Female nu/nu mice (11-12 weeks of age; implanted subcutaneously with 1 mm^3 MX-1 human breast carcinoma fragments in the flank) were sorted into one control (n=10) and two treatment (n=6) groups (group mean tumor size of 47-49 mg). Treatment groups are detailed in Table 14.
In addition to survival and tumor regression responses, the effect of treatment on blood cell populations was assessed. The major effect of these antitumor compounds on blood cell populations was a marked reduction in the neutrophil cell number. Monocyte depletion correlated fairly well with neutrophil reduction for each antitumor compound. […] There was a correlation between antitumor activity and reduced neutrophil count. In general, toxicity (as determined by neutrophil depletion) and weight loss correlated with efficacy. Importantly, the toxicities observed with the very efficacious antitumor compounds were manageable and reversible; neutrophil count and body weight rebounded from their nadirs in just a few days. Table 15 summarized the weight reduction, neutrophil and monocyte measurements on Day 4, with tumor weight reduction calculated at Day 18: Table 15

[2] = test system: MX-1 Human Breast Carcinoma Xenograft; assay: In vivo evaluation of oral administration against MX-1 breast carcinoma xenograft
Description: In Vivo Evaluation of the Oral Administration of Antitumor Compounds Against the MX-1 Human Breast Carcinoma Xenograft
The compounds were prepared in the following vehicle: 90% saline, 5% Cremophor, and 5% ethanol.

[3] = number of mice of six, i.v. split dose qd x 1, Taxol 36 mg/kg, 1755 49 mg/kg
[4] = Group 3: 73 mg/kg single oral bolus Day 1, 6 mice, study to Day 63

CC(=O)O[C@H]1C(=O)[C@@]2(C)[C@H]([C@H](OC(=O)c3ccccc3)[C@]3(O)C[C@H](OC(=O)[C@H](O)[C@@H](NC(=O)c4ccccc4)c4ccccc4)C(C)=C1C3(C)C)[C@]1(OC(C)=O)CO[C@@H]1C[C@@H]2O [Taxol]
survival extension compared to vehicle controls (SK-MES carcinoma; Taxol 36 mg/kg i.v.): 30% | MDS (n) (SK-MES carcinoma; mean days of survival until tumor 1.5 g, i.v. split dose qd x 1, Taxol 36 mg/kg, 1755 49 mg/kg, six mice per group): 16 ± 2.0 (6) days | Toxic Deaths (SK-MES carcinoma; [3]): 0 | Survivors (SK-MES carcinoma; number of mice of six, study ended Day 60): 0 | Stable Disease (SK-MES carcinoma; number of mice of six, tumor below 1.5 g at end of study): 0 | Complete Response (SK-MES carcinoma; number of mice of six, tumor not palpable at end of study): 0 | Partial Response (SK-MES carcinoma; number of mice of six, tumor smaller than on Day 1): 0 | Mean Score (SK-MES carcinoma; tumor score 1 to 10 per mouse, averaged per group (10 = complete response)): 1.3 ± 0.3 | survival extension compared to vehicle-treated animals ([1]; Taxol 36 mg/kg i.v., five animals): 10% | MDS (n) ([1]; mean days of survival, i.v. split dose qd x 1, Taxol 36 mg/kg, 1755 49 mg/kg, six mice per group): 27.0 ± 4.6 (5) days | Complete Response ([1]; number of mice of six): 0 | Stable Disease ([1]; number of mice of six): 0 | Survivors ([1]; number of mice of six): 1 | Toxic Deaths [1, 3]: 0 | Mean Score ([1]; tumor score 1 to 10 per mouse, averaged per group): 2.7 ± 1.3

CCOC(=O)O[C@H]1C(=O)[C@@]2(C)[C@H]([C@H](OC(=O)c3ccccc3)[C@]3(O)C[C@H](OC(=O)[C@H](O)[C@H](C=C(C)C)NC(=O)OC(C)(C)C)C(C)=C1C3(C)C)[C@]1(OC(C)=O)CO[C@@H]1C[C@@H]2O [Compound 1781]
Monocytes (K/µL) (blood cell populations; Day 4): 0.101 K/µL | Neutrophils (K/µL) (blood cell populations; Day 4): 0.117 K/µL | % Reduction (Neutrophils) (blood cell populations; Day 4, vs vehicle): 87.2% | Weight (blood cell populations; MX-1 tumor weight, Day 18): 275.3 mg | % Reduction (Weight) (blood cell populations; tumor weight reduction calculated at Day 18, vs vehicle): 68.3% | Mean Day of Survival (n) ([2]; Group 3: 73 mg/kg single oral bolus Day 1, 6 mice, n=5, 1.5 g endpoint, study to Day 63): 33.3 ± 2.9 (5) | Maximum Weight Loss (Day) ([2]; Group 3: 73 mg/kg single oral bolus Day 1, 6 mice, on Day 5): -9.4% (5) | Complete Response [2, 4]: 0 | Partial Response [2, 4]: 0 | Stable Disease [2, 4]: 1 | Toxic Deaths [2, 4]: 0 | survival versus vehicle controls ([2]; single oral bolus Day 1, for 1771 the other two mice of the group): significant survival extensions
